# Laboratory results reported in US20230074545A1, “TREATMENT OF CANCER WITH CDK12/13 INHIBITORS” (Kinnate Biopharma Inc., priority 2019, published 2023).
# Columns and labels:
# Experiment in all cases: Radiometric kinase panel
# Assay type in all cases: biochemical
# ACVR1 = biological target: T1, ACVR1 (Homo sapiens, UniProt Q04771)
# T1 construct: purchased ProQinase GmbH (Reaction Biology)
# Summary of the method: (§1)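 Activity was measured radiometrically from [gamma-33P]-ATP incorporation into substrate. The kinases were recombinant human GST- or His-tagged proteins, full-length or active fragments, expressed in Sf9 or E. coli. Compound in 10% DMSO was added before the enzyme/substrate mix, which started the reaction.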
# ACVR2B = biological target: T2, ACVR2B (Homo sapiens, UniProt Q13705)
# T2 construct: either as full-length or enzymatically active fragments; purchased ProQinase GmbH (Reaction Biology)
# Summary of the method: as §1
# AKT1 = biological target: T3, AKT1 (Homo sapiens, UniProt P31749)
# T3 construct: either as full-length or enzymatically active fragments; purchased ProQinase GmbH (Reaction Biology)
# Summary of the method: as §1
# CAMK2G = biological target: T4, CAMK2G (Homo sapiens, UniProt Q13555)
# T4 construct: either as full-length or enzymatically active fragments; purchased ProQinase GmbH (Reaction Biology)
# Summary of the method: as §1
# CDK1/CycE1 = biological target: T5, CDK1/CycE1 (Homo sapiens, UniProt P06493)
# T5 construct: either as full-length or enzymatically active fragments; purchased ProQinase GmbH (Reaction Biology); host or cells: Sf9 insect cells or E. coli
# Summary of the method: as §1
# CDK4/CycD2 = biological target: T6, CDK4/CycD2 (Homo sapiens, UniProt P11802)
# T6 construct: purchased ProQinase GmbH (Reaction Biology)
# Summary of the method: as §1
# CDK5/p35NCK = biological target: T7, CDK5/p35NCK (Homo sapiens, UniProt Q00535)
# T7 construct: either as full-length or enzymatically active fragments; purchased ProQinase GmbH (Reaction Biology)
# Summary of the method: as §1
# DAPK1 = biological target: T8, DAPK1 (Homo sapiens, UniProt P53355)
# T8 construct: either as full-length or enzymatically active fragments; purchased ProQinase GmbH (Reaction Biology); host or cells: Sf9 insect cells or E. coli
# Summary of the method: as §1
# DYRK1A = biological target: T9, DYRK1A (Homo sapiens, UniProt Q13627)
# T9 construct: either as full-length or enzymatically active fragments; purchased ProQinase GmbH (Reaction Biology)
# Summary of the method: as §1
# EPHA3 = biological target: T10, EPHA3 (Homo sapiens, UniProt P29320)
# T10 construct: either as full-length or enzymatically active fragments; purchased ProQinase GmbH (Reaction Biology)
# Summary of the method: as §1
# ERK2 = biological target: T11, ERK2 (Homo sapiens, UniProt P28482)
# T11 construct: either as full-length or enzymatically active fragments; purchased ProQinase GmbH (Reaction Biology); host or cells: Sf9 insect cells or E. coli (not specified per kinase)
# Summary of the method: as §1
# FYN = biological target: T12, FYN (Homo sapiens, UniProt P06241)
# T12 construct: purchased ProQinase GmbH (Reaction Biology)
# Summary of the method: as §1
# LYN = biological target: T13, LYN (Homo sapiens, UniProt P07948)
# T13 construct: either as full-length or enzymatically active fragments; purchased ProQinase GmbH (Reaction Biology)
# Summary of the method: as §1
# MARK2 = biological target: T14, MARK2 (Homo sapiens, UniProt Q7KZI7)
# T14 construct: either as full-length or enzymatically active fragments; purchased ProQinase GmbH (Reaction Biology)
# Summary of the method: as §1
# MYLK = biological target: T15, MYLK (Homo sapiens, UniProt Q15746)
# T15 construct: either as full-length or enzymatically active fragments; purchased ProQinase GmbH (Reaction Biology)
# Summary of the method: as §1
# PIM2 = biological target: T16, PIM2 (Homo sapiens, UniProt Q9P1W9)
# T16 construct: either as full-length or enzymatically active fragments; purchased ProQinase GmbH (Reaction Biology)
# Summary of the method: as §1
# PKCbeta1 = biological target: T17, PKCbeta1 (Homo sapiens, UniProt P05771)
# T17 construct: either as full-length or enzymatically active fragments; purchased ProQinase GmbH (Reaction Biology)
# Summary of the method: as §1
# PKCepsilon = biological target: T18, PKCepsilon (Homo sapiens, UniProt Q02156)
# T18 construct: either as full-length or enzymatically active fragments; purchased ProQinase GmbH (Reaction Biology); host or cells: Sf9 insect cells or E. coli
# Summary of the method: as §1
# PKMzeta = biological target: T19, PKMzeta (Homo sapiens, UniProt Q05513)
# T19 construct: either as full-length or enzymatically active fragments; purchased ProQinase GmbH (Reaction Biology); host or cells: Sf9 insect cells or E. coli
# Summary of the method: as §1
# PRK2 = biological target: T20, PRK2 (Homo sapiens, UniProt Q16513)
# T20 construct: either as full-length or enzymatically active fragments; purchased ProQinase GmbH (Reaction Biology)
# Summary of the method: as §1
# ROCK2 = biological target: T21, ROCK2 (Homo sapiens, UniProt O75116)
# T21 construct: either as full-length or enzymatically active fragments; purchased ProQinase GmbH (Reaction Biology)
# Summary of the method: as §1
# RPS6KA1 = biological target: T22, RPS6KA1 (Homo sapiens, UniProt Q15418)
# T22 construct: purchased ProQinase GmbH (Reaction Biology)
# Summary of the method: as §1
# SGK2 = biological target: T23, SGK2 (Homo sapiens, UniProt Q9HBY8)
# T23 construct: purchased ProQinase GmbH (Reaction Biology); host or cells: Sf9 insect cells or E. coli (not specified per kinase)
# Summary of the method: as §1
# SLK = biological target: T24, SLK (Homo sapiens, UniProt Q9H2G2)
# T24 construct: either as full-length or enzymatically active fragments; purchased ProQinase GmbH (Reaction Biology)
# Summary of the method: as §1
# SNK = biological target: T25, SNK (Homo sapiens, UniProt Q9NYY3)
# T25 construct: either as full-length or enzymatically active fragments; purchased ProQinase GmbH (Reaction Biology); host or cells: Sf9 insect cells or E. coli (not specified per kinase)
# Summary of the method: as §1
# STK33 = biological target: T26, STK33 (Homo sapiens, UniProt Q9BYT3)
# T26 construct: either as full-length or enzymatically active fragments; purchased ProQinase GmbH (Reaction Biology)
# Summary of the method: as §1
# TIE2 = biological target: T27, TIE2 (Homo sapiens, UniProt Q02763)
# T27 construct: either as full-length or enzymatically active fragments; purchased ProQinase GmbH (Reaction Biology); host or cells: Sf9 insect cells or E. coli
# Summary of the method: as §1
# TTBK1 = biological target: T28, TTBK1 (Homo sapiens, UniProt Q5TCY1)
# T28 construct: either as full-length or enzymatically active fragments; purchased ProQinase GmbH (Reaction Biology)
# Summary of the method: as §1
# TYRO3 = biological target: T29, TYRO3 (Homo sapiens, UniProt Q06418)
# T29 construct: either as full-length or enzymatically active fragments; purchased ProQinase GmbH (Reaction Biology)
# Summary of the method: as §1
# VEGFR1 = biological target: T30, VEGFR1 (Homo sapiens, UniProt P17948)
# T30 construct: either as full-length or enzymatically active fragments; purchased ProQinase GmbH (Reaction Biology); host or cells: Sf9 insect cells or E. coli (not specified per kinase)
# Summary of the method: as §1
# VRK1 = biological target: T31, VRK1 (Homo sapiens, UniProt Q99986)
# T31 construct: either as full-length or enzymatically active fragments; purchased ProQinase GmbH (Reaction Biology)
# Summary of the method: as §1
# T13 sequence (P07948 whole entry, the tested form may be a part): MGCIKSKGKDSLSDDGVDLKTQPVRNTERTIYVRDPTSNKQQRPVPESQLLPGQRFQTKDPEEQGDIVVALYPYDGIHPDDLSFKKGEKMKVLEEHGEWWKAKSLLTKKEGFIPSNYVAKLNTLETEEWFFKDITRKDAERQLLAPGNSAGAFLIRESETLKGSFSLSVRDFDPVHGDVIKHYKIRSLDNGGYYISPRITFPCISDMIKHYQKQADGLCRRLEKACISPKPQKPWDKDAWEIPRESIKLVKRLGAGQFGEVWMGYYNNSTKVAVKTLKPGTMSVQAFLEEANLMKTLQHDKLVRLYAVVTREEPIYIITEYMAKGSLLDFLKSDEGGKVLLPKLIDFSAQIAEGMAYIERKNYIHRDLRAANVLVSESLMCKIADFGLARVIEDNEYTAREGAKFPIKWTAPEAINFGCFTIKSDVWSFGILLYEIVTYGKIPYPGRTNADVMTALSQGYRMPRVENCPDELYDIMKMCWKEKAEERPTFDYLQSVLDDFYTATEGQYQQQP
# T30 sequence (P17948 27-1338): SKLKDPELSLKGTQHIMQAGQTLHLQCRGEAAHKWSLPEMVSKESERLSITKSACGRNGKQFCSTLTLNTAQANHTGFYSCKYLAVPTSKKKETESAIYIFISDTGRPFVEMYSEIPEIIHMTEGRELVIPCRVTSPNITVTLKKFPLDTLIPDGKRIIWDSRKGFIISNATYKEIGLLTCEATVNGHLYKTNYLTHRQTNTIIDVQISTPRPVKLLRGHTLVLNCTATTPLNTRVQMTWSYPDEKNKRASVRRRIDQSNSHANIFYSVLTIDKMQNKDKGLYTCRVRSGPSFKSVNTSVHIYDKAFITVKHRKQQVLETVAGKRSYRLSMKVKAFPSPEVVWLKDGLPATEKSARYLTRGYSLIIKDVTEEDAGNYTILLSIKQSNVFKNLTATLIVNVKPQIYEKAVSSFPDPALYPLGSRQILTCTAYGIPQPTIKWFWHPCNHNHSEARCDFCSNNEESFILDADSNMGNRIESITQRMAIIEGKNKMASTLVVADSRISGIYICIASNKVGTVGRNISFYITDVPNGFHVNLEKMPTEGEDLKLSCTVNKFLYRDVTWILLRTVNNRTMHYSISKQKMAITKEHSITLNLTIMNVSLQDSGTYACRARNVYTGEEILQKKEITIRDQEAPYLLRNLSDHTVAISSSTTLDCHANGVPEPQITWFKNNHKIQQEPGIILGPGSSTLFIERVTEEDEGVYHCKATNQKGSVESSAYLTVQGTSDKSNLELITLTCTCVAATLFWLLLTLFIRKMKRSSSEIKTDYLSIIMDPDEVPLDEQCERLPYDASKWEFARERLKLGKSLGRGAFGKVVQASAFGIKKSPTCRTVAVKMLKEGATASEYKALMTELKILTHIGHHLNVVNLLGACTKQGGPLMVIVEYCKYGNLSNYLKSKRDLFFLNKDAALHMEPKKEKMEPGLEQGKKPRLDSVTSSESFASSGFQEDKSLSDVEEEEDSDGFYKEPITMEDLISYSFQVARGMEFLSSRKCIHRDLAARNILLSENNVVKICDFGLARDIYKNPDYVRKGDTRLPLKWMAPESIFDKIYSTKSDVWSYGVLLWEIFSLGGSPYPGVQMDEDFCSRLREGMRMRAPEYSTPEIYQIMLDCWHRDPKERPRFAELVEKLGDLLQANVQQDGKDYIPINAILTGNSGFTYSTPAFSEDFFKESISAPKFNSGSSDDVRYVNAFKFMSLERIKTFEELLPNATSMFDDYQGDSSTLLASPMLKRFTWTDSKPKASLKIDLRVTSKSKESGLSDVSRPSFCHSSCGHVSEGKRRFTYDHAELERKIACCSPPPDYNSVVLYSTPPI
# T16 sequence (Q9P1W9 whole entry, the tested form may be a part): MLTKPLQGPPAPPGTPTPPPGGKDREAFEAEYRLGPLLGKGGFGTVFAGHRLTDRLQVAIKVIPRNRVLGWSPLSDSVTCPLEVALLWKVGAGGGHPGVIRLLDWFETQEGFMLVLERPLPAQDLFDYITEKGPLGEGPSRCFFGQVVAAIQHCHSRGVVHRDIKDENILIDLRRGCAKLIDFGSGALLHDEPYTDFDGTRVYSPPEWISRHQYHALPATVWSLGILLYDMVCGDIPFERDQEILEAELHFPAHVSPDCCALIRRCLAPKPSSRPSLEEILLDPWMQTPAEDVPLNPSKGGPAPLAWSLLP
# T4 sequence (Q13555 whole entry, the tested form may be a part): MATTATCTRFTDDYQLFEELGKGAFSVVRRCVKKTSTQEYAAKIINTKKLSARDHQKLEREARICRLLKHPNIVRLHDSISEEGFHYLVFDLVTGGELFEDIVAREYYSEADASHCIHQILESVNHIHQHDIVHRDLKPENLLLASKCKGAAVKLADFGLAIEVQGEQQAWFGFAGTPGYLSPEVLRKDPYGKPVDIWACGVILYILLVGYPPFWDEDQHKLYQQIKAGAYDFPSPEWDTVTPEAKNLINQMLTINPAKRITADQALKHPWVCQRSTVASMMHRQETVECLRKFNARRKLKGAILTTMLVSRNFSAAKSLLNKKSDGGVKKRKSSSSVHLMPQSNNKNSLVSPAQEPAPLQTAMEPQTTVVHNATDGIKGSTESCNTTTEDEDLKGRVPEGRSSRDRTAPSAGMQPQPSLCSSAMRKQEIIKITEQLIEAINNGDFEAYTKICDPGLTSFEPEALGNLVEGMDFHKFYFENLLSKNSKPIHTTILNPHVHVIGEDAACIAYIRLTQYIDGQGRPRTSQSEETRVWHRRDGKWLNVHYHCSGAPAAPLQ
# T26 sequence (Q9BYT3 whole entry, the tested form may be a part): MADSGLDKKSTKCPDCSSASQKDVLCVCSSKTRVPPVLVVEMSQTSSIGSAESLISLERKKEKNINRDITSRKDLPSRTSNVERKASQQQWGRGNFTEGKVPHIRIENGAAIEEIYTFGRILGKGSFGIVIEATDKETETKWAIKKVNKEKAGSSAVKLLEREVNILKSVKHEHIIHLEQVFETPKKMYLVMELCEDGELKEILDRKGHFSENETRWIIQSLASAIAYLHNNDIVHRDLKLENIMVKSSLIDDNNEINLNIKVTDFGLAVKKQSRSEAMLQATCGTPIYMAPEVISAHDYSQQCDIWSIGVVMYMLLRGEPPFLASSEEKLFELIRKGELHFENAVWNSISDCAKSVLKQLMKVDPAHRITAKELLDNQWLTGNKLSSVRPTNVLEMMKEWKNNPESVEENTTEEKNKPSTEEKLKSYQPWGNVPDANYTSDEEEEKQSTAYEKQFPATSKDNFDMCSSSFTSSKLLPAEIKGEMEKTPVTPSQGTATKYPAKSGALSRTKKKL
# T3 sequence (P31749 whole entry, the tested form may be a part): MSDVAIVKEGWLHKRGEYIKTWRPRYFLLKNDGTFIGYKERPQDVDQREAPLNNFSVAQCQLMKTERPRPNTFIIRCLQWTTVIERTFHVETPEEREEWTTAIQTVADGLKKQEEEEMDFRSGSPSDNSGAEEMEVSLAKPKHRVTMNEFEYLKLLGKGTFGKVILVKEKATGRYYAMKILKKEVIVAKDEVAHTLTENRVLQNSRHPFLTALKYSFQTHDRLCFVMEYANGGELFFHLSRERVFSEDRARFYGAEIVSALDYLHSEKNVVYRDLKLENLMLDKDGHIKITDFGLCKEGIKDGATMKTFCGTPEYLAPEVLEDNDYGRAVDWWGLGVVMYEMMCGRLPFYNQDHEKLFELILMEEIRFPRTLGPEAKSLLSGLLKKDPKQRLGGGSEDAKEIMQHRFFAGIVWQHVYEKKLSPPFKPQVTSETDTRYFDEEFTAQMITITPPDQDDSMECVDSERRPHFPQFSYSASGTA
# T21 sequence (O75116 whole entry, the tested form may be a part): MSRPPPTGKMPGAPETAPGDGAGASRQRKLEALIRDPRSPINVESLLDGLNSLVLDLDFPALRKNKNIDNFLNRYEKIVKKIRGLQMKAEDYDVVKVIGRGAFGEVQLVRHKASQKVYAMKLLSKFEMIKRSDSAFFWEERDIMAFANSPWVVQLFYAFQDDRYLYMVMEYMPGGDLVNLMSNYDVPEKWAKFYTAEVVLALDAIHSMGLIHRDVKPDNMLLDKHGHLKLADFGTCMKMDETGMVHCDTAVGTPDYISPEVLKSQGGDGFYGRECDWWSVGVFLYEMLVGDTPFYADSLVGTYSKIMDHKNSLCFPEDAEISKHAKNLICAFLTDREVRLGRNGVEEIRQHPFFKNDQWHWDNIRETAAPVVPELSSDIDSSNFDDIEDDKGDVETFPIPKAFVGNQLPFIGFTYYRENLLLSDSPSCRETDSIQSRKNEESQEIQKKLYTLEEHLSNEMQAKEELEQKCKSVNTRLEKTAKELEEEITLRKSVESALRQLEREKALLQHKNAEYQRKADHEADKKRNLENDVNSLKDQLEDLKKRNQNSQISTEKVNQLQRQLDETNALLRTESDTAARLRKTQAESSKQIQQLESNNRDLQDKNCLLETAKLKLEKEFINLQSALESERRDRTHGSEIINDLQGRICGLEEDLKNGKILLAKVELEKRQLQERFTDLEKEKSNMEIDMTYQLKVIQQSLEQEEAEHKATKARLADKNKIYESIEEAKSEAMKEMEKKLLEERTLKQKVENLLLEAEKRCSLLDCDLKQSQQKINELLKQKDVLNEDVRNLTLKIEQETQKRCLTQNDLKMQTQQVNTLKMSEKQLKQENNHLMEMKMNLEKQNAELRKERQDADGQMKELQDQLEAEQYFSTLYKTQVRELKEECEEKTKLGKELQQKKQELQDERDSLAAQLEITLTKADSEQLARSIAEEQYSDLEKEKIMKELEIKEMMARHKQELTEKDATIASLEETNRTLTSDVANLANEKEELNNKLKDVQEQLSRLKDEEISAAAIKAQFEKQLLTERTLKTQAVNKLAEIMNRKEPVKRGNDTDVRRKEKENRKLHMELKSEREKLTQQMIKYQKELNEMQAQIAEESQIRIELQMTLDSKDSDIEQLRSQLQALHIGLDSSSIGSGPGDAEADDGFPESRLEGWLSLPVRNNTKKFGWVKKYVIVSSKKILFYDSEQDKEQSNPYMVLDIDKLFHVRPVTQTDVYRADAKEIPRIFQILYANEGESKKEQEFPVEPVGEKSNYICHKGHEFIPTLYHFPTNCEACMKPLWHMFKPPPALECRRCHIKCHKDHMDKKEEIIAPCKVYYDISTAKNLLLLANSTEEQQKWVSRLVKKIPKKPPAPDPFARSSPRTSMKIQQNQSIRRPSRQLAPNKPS
compound,measurement,setting,value
"C=CC(=O)Nc1ccc(C(=O)N2CC[C@@H](Nc3ncc(C#N)cn3)C2)cc1 [Compound 4, (R)-N-(4-(3-((5-cyanopyrimidin-2-yl)amino)pyrrolidine-1-carbonyl)phenyl)acrylamide]",inhibition at 1 µM,ACVR1,-1%
same,inhibition at 1 µM,ACVR2B,6%
same,inhibition at 1 µM,AKT1,2%
same,inhibition at 1 µM,CAMK2G,5%
same,inhibition at 1 µM,CDK1/CycE1,11%
same,inhibition at 1 µM,CDK4/CycD2,0%
same,inhibition at 1 µM,CDK5/p35NCK,23%
same,inhibition at 1 µM,DAPK1,-15%
same,inhibition at 1 µM,DYRK1A,7%
same,inhibition at 1 µM,EPHA3,6%
same,inhibition at 1 µM,ERK2,9%
same,inhibition at 1 µM,FYN,-2%
same,inhibition at 1 µM,LYN,-8%
same,inhibition at 1 µM,MARK2,2%
same,inhibition at 1 µM,MYLK,3%
same,inhibition at 1 µM,PIM2,3%
same,inhibition at 1 µM,PKCbeta1,4%
same,inhibition at 1 µM,PKCepsilon,15%
same,inhibition at 1 µM,PKMzeta,12%
same,inhibition at 1 µM,PRK2,2%
same,inhibition at 1 µM,ROCK2,19%
same,inhibition at 1 µM,RPS6KA1,-1%
same,inhibition at 1 µM,SGK2,1%
same,inhibition at 1 µM,SLK,21%
same,inhibition at 1 µM,SNK,9%
same,inhibition at 1 µM,STK33,5%
same,inhibition at 1 µM,TIE2,-18%
same,inhibition at 1 µM,TTBK1,-5%
same,inhibition at 1 µM,TYRO3,-3%
same,inhibition at 1 µM,VEGFR1,8%
same,inhibition at 1 µM,VRK1,2%
